Laboratory results reported in ChEMBL document CHEMBL4715917 (Bioorg Med Chem, 2021).

Assays:
NCI-H1975 = experiment: Cytotoxicity against human NCI-H1975 cells harboring T790M/L858R mutant assessed as reduction in cell viability after 72 hrs by MTT assay; assay type: functional, cell-based; conditions: NCI-H1975, 72 h
A549 = experiment: Cytotoxicity against human A549 cells harboring wild type EGFR assessed as reduction in cell viability after 72 hrs by MTT assay; assay type: functional, cell-based; conditions: A549, 72 h
[1] = target: Epidermal growth factor receptor (Homo sapiens, UniProt P00533)
Chain of Epidermal growth factor receptor (Homo sapiens, UniProt P00533) (P00533 whole entry): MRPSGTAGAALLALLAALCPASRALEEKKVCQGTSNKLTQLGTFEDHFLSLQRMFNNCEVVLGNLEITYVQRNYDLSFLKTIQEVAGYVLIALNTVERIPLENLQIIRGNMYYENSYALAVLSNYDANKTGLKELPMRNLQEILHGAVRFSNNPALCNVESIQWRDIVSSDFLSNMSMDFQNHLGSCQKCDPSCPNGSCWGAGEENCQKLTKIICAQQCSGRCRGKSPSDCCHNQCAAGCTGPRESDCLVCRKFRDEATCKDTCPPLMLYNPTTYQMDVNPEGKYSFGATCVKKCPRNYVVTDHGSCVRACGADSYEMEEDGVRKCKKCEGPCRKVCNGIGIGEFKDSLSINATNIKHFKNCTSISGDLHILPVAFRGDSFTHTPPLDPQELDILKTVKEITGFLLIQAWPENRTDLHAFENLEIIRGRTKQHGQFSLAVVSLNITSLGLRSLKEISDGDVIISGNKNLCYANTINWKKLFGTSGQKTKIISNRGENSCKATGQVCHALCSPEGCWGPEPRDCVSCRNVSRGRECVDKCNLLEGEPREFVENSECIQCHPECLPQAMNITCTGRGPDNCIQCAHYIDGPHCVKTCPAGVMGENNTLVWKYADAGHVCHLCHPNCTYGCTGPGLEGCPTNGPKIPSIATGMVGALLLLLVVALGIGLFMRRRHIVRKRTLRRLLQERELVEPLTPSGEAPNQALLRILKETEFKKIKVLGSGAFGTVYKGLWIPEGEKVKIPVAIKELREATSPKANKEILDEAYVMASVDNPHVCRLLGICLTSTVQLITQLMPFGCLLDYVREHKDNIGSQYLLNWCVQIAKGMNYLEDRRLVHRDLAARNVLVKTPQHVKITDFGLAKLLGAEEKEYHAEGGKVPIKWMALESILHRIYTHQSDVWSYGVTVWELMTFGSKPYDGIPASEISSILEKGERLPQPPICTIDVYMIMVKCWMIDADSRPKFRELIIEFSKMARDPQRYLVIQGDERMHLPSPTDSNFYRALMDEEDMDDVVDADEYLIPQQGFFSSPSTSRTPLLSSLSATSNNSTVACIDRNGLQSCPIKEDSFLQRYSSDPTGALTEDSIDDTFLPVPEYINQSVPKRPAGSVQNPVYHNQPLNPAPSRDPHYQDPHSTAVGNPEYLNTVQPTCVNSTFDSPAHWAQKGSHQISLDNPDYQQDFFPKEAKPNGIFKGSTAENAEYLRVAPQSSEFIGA
Description: Inhibition of recombinant wild type EGFR (696 to C terminal end) (unknown origin) using poly (Glu-Tyr) as substrate preincubated for 30 mins followed by substrate addition and measured after 30 mins by ELISA

[2] = target: Epidermal growth factor receptor (Homo sapiens, UniProt P00533, L858R/T790M)
Chain of Epidermal growth factor receptor (Homo sapiens, UniProt P00533, L858R/T790M) (P00533 25-1210 T790M/L858R limits assumed): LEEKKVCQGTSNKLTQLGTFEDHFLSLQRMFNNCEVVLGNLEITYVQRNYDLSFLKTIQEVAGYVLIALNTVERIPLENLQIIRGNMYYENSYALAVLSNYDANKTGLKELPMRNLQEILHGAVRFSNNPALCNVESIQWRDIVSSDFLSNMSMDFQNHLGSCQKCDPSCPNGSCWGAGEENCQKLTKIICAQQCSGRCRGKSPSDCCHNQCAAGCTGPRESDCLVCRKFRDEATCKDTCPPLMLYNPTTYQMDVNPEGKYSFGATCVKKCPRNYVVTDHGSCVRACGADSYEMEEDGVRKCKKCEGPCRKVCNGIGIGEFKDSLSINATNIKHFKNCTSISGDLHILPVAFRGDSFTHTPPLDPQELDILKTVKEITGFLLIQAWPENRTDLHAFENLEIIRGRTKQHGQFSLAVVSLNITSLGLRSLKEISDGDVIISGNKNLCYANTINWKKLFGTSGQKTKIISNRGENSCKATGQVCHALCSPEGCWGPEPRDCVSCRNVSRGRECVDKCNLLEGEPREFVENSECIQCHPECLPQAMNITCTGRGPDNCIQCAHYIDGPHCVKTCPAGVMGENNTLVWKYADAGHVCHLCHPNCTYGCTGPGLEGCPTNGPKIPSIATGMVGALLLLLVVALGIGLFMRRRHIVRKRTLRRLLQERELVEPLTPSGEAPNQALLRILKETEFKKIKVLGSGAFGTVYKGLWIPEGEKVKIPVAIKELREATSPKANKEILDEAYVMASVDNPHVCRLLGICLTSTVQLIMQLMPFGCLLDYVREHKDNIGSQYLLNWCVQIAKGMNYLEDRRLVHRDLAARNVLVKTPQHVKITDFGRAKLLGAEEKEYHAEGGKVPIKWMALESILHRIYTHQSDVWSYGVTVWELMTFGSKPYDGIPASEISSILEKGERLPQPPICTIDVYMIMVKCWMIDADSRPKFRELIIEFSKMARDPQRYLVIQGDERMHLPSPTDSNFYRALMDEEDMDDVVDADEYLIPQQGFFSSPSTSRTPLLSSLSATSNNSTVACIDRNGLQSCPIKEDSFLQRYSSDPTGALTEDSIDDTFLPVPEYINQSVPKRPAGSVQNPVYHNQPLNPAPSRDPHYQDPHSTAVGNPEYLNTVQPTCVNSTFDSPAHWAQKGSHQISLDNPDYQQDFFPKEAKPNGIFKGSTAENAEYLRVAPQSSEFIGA

Row | Structure (SMILES) | IC50 (NCI-H1975) [nM] | IC50 (A549) [nM] | IC50 [1] [nM] | IC50 [2] [nM]
1 | COc1ccc(-c2c3c4cc(OC)c(O)cc4[nH]c(=O)c3n3ccc4cc(O)c(OC)cc4c23)cc1O | 1.9 | 15.5 | – | –
2 | COc1ccc(-c2c3c4cc(OC)c(OCCCN(C)C)cc4[nH]c(=O)c3n3ccc4cc(O)c(OC)cc4c23)cc1O | 350 | 1040 | 15.5 | 5.7
3 | COc1ccc(-c2c3c4cc(OCCCN(C)C)c(O)cc4[nH]c(=O)c3n3ccc4cc(O)c(OC)cc4c23)cc1O | – | – | 23.6 | 16.6
4 | COc1ccc(-c2c3c4cc(O)c(OCCCN(C)C)cc4[nH]c(=O)c3n3ccc4cc(O)c(OC)cc4c23)cc1O | – | – | 24.7 | 10.2
5 | COc1ccc(-c2c3c4cc(OCCCN(C)C)c(OCCCN(C)C)cc4[nH]c(=O)c3n3ccc4cc(O)c(OC)cc4c23)cc1O | 1360 | 2040 | 4.6 | 1.7
6 | COc1ccc(-c2c3c4cc(OC)c(OC)cc4[nH]c(=O)c3n3ccc4cc(O)c(OC)cc4c23)cc1O | – | – | 259 | 65.3
